The values that follow come from patent US20090054392A1, “NAPHTHYLPYRIMIDINE, NAPHTHYLPYRAZINE AND NAPHTHYLPYRIDAZINE ANALOGS AND THEIR USE AS AGONISTS OF THE WNT-BETA-CATENIN CELLULAR MESSAGING SYSTEM” (Wyeth, priority 2007, published 2009).

This series concerns Dkk1-LRP5-TCF-Luciferase. Put plainly: Functional Dkk1-LRP5-TCF-Luciferase Assay in U2OS Cells. The note with it: for fold induction at 2 µM / fold induction at 20 µM / EC50: Homo sapiens, U2OS; for fold induction at 2 µM: read-out: B = TCF ACTIVITY/DMSO CONTROL Fold induction @ 2.0 uM, 2.0 uM compound; for fold induction at 20 µM: read-out: C = TCF ACTIVITY/DMSO CONTROL Fold induction @ 20.0 uM, 20.0 uM compound; for A = MAX FOLD Induction/DMSO CONTROL: maximum fold induction over DMSO control.

As to `CC(C)(C)OC(=O)N1CCC(Nc2nccc(-c3ccc4ccccc4c3)n2)CC1` [tert-butyl 4-{[4-(2-naphthyl)pyrimidin-2-yl]amino}piperidine-1-carboxylate], the fold induction at 2 µM was found to be 1 and the fold induction at 20 µM stood at 1.41.
For the compound `CC(C)COc1ccc2cc(-c3ccnc(N4CCC(CN)CC4)n3)ccc2c1` [1-{1-[4-(6-isobutoxy-2-naphthyl)pyrimidin-2-yl]piperidin-4-yl}methanamine], the fold induction at 2 µM stood at 1.54.
For `NCC1CCN(c2nccc(-c3ccc4cc(O)ccc4c3)n2)CC1` [6-{2-[4-(aminomethyl)piperidin-1-yl]pyrimidin-4-yl}-2-naphthol], the fold induction at 2 µM stood at 1.88 and the fold induction at 20 µM was determined as 0.015.
What is called EC50 is the concentration that produces a half-maximal response. Low values mean a more potent agent, high ones a less potent agent. Consider `c1ccc2cc(-c3ccnc(NCCCN4CCOCC4)n3)ccc2c1` [N-(3-morpholin-4-ylpropyl)-4-(2-naphthyl)pyrimidin-2-amine], for which the EC50 turned out to be 23.8 µM, the fold induction at 2 µM amounted to 1.68, the fold induction at 20 µM was determined as 3.27 and the “A = MAX FOLD Induction/DMSO CONTROL” value is 2.120 fold.
Turning to `NS(=O)(=O)c1ccc(CNc2nccc(-c3ccc4ccccc4c3)n2)cc1` [4-({[4-(2-naphthyl)pyrimidin-2-yl]amino}methyl)benzenesulfonamide], the fold induction at 2 µM was 1.3 and the fold induction at 20 µM is 1.06.
Regarding `CCN(CCO)[C@H]1CCN(c2nccc(-c3ccc4ccccc4c3)n2)C1` [2-(ethyl{(3S)-1-[4-(2-naphthyl)pyrimidin-2-yl]pyrrolidin-3-yl}amino)ethanol], the EC50 turned out to be 3.89 µM, the fold induction at 2 µM came to 1.42, the fold induction at 20 µM came out at 5.58 and the “A = MAX FOLD Induction/DMSO CONTROL” value is listed as 6.695 fold.
In the case of `CCNC(=O)NCCN1CCN(c2nccc(-c3ccc4ccccc4c3)n2)CC1` [N-ethyl-N′-(2-{4-[4-(2-naphthyl)pyrimidin-2-yl]piperazin-1-yl}ethyl)urea], the fold induction at 2 µM stood at 1.09 and the fold induction at 20 µM came to 0.28.
As to `CCC(=O)N(C)CCN(C)[C@@H]1CCN(c2nccc(-c3ccc4ccccc4c3)n2)C1` [N-methyl-N-[2-(methyl{(3R)-1-[4-(2-naphthyl)pyrimidin-2-yl]pyrrolidin-3-yl}amino)ethyl]propanamide], the fold induction at 20 µM was 2.5.
Turning to `CN(C)C(=O)N[C@H]1CC[C@H](Nc2nccc(-c3ccc4ccccc4c3)n2)CC1` [N,N-dimethyl-N′-(trans-4-{[4-(2-naphthyl)pyrimidin-2-yl]amino}cyclohexyl)urea], the fold induction at 2 µM turned out to be 2.78, the fold induction at 20 µM was found to be 1.61 and the “A = MAX FOLD Induction/DMSO CONTROL” value came to 2.270 fold.
Turning to `CS(=O)(=O)N1CC(CNc2nccc(-c3ccc4ccccc4c3)n2)C1` [N-{[1-(methylsulfonyl)azetidin-3-yl]methyl}-4-(2-naphthyl)pyrimidin-2-amine], the fold induction at 20 µM is 1.52.
Turning to `Cc1ccc(S(=O)(=O)N2CC[C@H](Nc3nccc(-c4ccc5ccccc5c4)n3)C2)cc1` [N-{(3S)-1-[(4-methylphenyl)sulfonyl]pyrrolidin-3-yl}-4-(2-naphthyl)pyrimidin-2-amine], the fold induction at 2 µM stood at 1.22 and the fold induction at 20 µM was determined as 1.01.
On to `CNC(=O)[C@H]1CCCN1c1nccc(-c2ccc3ccccc3c2)n1` [N-methyl-1-[4-(2-naphthyl)pyrimidin-2-yl]-D-prolinamide], for which the fold induction at 2 µM was found to be 1.13 and the fold induction at 20 µM amounted to 1.32.
On to `CCCN1CCC(N(C)c2nccc(-c3ccc4ccccc4c3)n2)CC1` [N-methyl-4-(2-naphthyl)-N-(1-propylpiperidin-4-yl)pyrimidin-2-amine], for which the fold induction at 2 µM came to 1.74.
For `O=C(N1CCCN(c2nccc(-c3ccc4ccccc4c3)n2)CC1)C(F)(F)F` [1-[4-(2-naphthyl)pyrimidin-2-yl]-4-(trifluoroacetyl)-1,4-diazepane], the fold induction at 20 µM was 1.24.
As for `O=[N+]([O-])CC1(O)CCN(c2nccc(-c3ccc4ccccc4c3)n2)CC1` [1-[4-(2-naphthyl)pyrimidin-2-yl]-4-(nitromethyl)piperidin-4-ol], the fold induction at 2 µM amounted to 1.19 and the fold induction at 20 µM was found to be 1.49.
The corresponding values for `CN(C1CCCCC1)[C@H]1CCN(c2nccc(-c3ccc4ccccc4c3)n2)C1` [(3S)—N-cyclohexyl-N-methyl-1-[4-(2-naphthyl)pyrimidin-2-yl]pyrrolidin-3-amine] are 1.22 and 0.01.
In the case of `CC(=O)NC1CCCN(c2nccc(-c3ccc4ccccc4c3)n2)CC1` (stereo not drawn) [N-{1-[4-(2-naphthyl)pyrimidin-2-yl]azepan-4-yl}acetamide], the fold induction at 2 µM was determined as 1.26, the fold induction at 20 µM was 2.91 and the “A = MAX FOLD Induction/DMSO CONTROL” value is recorded as 1.350 fold.
For `c1ccc2cc(-c3ccnc(N4CC[C@@H](Cn5ccnc5)C4)n3)ccc2c1` [2-[(3S)-3-(1H-imidazol-1-ylmethyl)pyrrolidin-1-yl]-4-(2-naphthyl)pyrimidine] the same measures were 1.27, 4.29 and 2.430 fold.
As to `CC(C)(C)OC(=O)NCC1CCN(c2nccc(-c3ccc4ccccc4c3)n2)C1` (stereo not drawn) [tert-butyl ({1-[4-(2-naphthyl)pyrimidin-2-yl]pyrrolidin-3-yl}methyl)carbamate], the fold induction at 2 µM worked out at 1.09 and the fold induction at 20 µM was found to be 0.17.
With `CN(CC1CCN(c2nccc(-c3ccc4ccccc4c3)n2)CC1)C1CCCCC1` [N-methyl-N-({1-[4-(2-naphthyl)pyrimidin-2-yl]piperidin-4-yl}methyl)cyclohexanamine], the fold induction at 2 µM turned out to be 2.87, the fold induction at 20 µM was found to be 0.03 and the “A = MAX FOLD Induction/DMSO CONTROL” value is recorded as 2.160 fold.
As for `NC(=O)N1CC[C@H](Nc2nccc(-c3ccc4ccccc4c3)n2)C1` [(3S)-3-{[4-(2-naphthyl)pyrimidin-2-yl]amino}pyrrolidine-1-carboxamide], the midpoint of the response, the EC50, lay at 1.52 µM; the fold induction at 2 µM is 2.05; the fold induction at 20 µM came out at 2.94; the “A = MAX FOLD Induction/DMSO CONTROL” value is 2.750 fold.
With `OCC1CCCN([C@H]2CCN(c3nccc(-c4ccc5ccccc5c4)n3)C2)C1` (stereo partly drawn) [(1-{(3S)-1-[4-(2-naphthyl)pyrimidin-2-yl]pyrrolidin-3-yl}piperidin-3-yl)methanol], the fold induction at 2 µM amounted to 1.88 and the fold induction at 20 µM turned out to be 0.01.
With `NC(=O)NCC1CN(c2nccc(-c3ccc4ccccc4c3)n2)C1` [N-({1-[4-(2-naphthyl)pyrimidin-2-yl]azetidin-3-yl}methyl)urea], the fold induction at 2 µM came out at 1.46 and the fold induction at 20 µM is 1.64.
On to `NCC1CN(c2nccc(-c3ccc4ccccc4c3)n2)C1` [1-{1-[4-(2-naphthyl)pyrimidin-2-yl]azetidin-3-yl}methanamine], for which a half-maximal effect (EC50) was put at 22.9 µM, the fold induction at 2 µM was 2.56, the fold induction at 20 µM came to 0.71 and the “A = MAX FOLD Induction/DMSO CONTROL” value stood at 3.080 fold.
In the case of `CN(c1nccc(-c2ccc3ccccc3c2)n1)C1CCN(C(=N)N)CC1` [4-{methyl[4-(2-naphthyl)pyrimidin-2-yl]amino}piperidine-1-carboximidamide], the fold induction at 2 µM stood at 1.74.
`N#Cc1ccc(C(=O)N[C@@H]2CCN(c3nccc(-c4ccc5ccccc5c4)n3)C2)cc1` [4-cyano-N-{(3R)-1-[4-(2-naphthyl)pyrimidin-2-yl]pyrrolidin-3-yl}benzamide]: the fold induction at 20 µM was 1.29.
